Results as given in patent EP2594270A2, “The use of sGC stimulators, sGC activators, alone and combinations with PDE5 inhibitors for the treatment of systemic sclerosis (SSc)” (BIP Patents, priority 2011, dated 2013).
Like-named read-outs stand apart in the source and are kept apart here.

How the values were obtained:
[1] = test system: Bleomycin-induced skin fibrosis; assay: Bleomycin-induced skin fibrosis, preventive dose-regimen (Example A): dermal thickness, hydroxyproline assay, αSMA immunohistochemistry; format: in vivo, mice; details: for Collagen content: hydroxyproline assay; for Myofibroblast count: αSMA positive cells
Experimental: Local skin fibrosis was induced in 6-week-old, pathogen-free, female DBA/2 mice (Charles River, Sulzfeld, Germany) by repeated (every other day) subcutaneous injections of bleomycin (0,5 mg/ml in saline) in a defined area of the upper back. Control mice were injected in the same manner with saline only and served as reference. For all groups the injection volume was 100 µl. Concomitant to bleomycin treatment, the mice were treated orally with test drug or vehicle. Mice were treated a) with vehicle b) with 1 mg/kg example 1A, and c) with 3 mg/kg example 1A, twice a day via gavage for 21 days. After this 3 weeks treatment period, the animals were sacrificed and skin samples were obtained for analysis.
(§1) The injected skin areas were fixed in 4% formalin and embedded in paraffin. Histological sections were stained with hematoxylin and eosin for the determination of dermal thickness. The dermal thickness was determined by measuring the largest distance between the epidermal-dermal junction and the dermal-subcutaneous fat junction. The measurements were performed by an examiner blinded to the treatment of the mice.
(§2) To analyze the collagen content in skin samples, hydroxyproline assay was performed. After digestion of punch biopsies (Ø 3mm) in 6M HCl for three hours at 120°C, chloramine T (0.06 M) was added and samples were mixed and incubated for 20 min at room temperature. 3.15 M perchloric acid and 20 % p-dimethylaminobenzaldehyde were added and samples were incubated for additional 20 min at 60 °C. The absorbance was determined at 557 nm.
(§3) The expression of α-smooth muscle actin (αSMA) was analyzed in paraffin embedded sections. After deparaffinization, samples were incubated with 3% bovine serum albumin followed by incubation with 3% H2O2. αSMA positive cells in mouse sections were detected by incubation with monoclonal anti-αSMA antibodies (clone 1A4, Sigma-Aldrich, Steinheim, Germany). Irrelevant isotype antibodies in the same concentration were used for control (Santa Cruz Biotechnology, Santa Cruz, CA, USA). Antibodies labeled with horseradish peroxidase (Dako, Hamburg, Germany) were used as secondary antibodies. The expression of the NICD and αSMA was visualized with DAB peroxidase substrate solution (Sigma-Aldrich). The number of myofibroblasts was counted from 4 different sections of lesional skin for each mouse by an examiner blinded to the treatment of the mice. Table 1: Effects of example 1A on development of Bleomycin-induced skin fibrosis.
Fibrosis parameters expressed as x-fold change with respect to vehicle-treated control

[2] = test system: established skin fibrosis in Tsk-mice; assay: Tight skin (Tsk-1) mouse model of systemic sclerosis (Example C): dermal thickness, hydroxyproline assay, αSMA immunohistochemistry; format: in vivo; details: for hypodermal thickness / Collagen content / Myofibroblast count: oral gavage, x-fold change with respect to vehicle-treated wild type mice; for hypodermal thickness: five weeks of treatment; for Collagen content: hydroxyproline assay; for Collagen content / Myofibroblast count: five weeks; for Myofibroblast count: αSMA positive cells
Experimental: as §1, §2, §3
In addition to the mouse model of bleomycin-induced dermal fibrosis, the tight-skin (Tsk-1) mouse model of systemic sclerosis was used to evaluate the anti-fibrotic potential of test drugs. Due to a dominant mutation in fibrillin-1, the phenotype of Tsk-1 is characterized by an increased hypodermal thickness. Genotyping of Tsk-1 mice was performed by PCR with the following primers: mutated fibrillin-1/ Tsk-1 forward primer: 5' - […] - 3', reverse primer: 5' - […] - 3'. Tsk-1 mice were treated daily with test drug or vehicle, respectively, by oral gavage. In addition, a group of corresponding wild type(pa/pa) mice was treated with vehicle. The treatment was started at an age of five weeks. After five weeks of treatment, mice were sacrificed by cervical dislocation and skin samples were obtained for analysis.
Histological analysis, hydroxyproline assay and immunhistochemistry for α-smooth muscel actin were performed as described in the Example 1A section. Table 4: Effects of example 1A on established skin fibrosis in Tsk-mice
Fibrosis parameters expressed as x-fold change with respect to vehicle-treated wild type mice

[3] = test system: established Bleomycin-induced skin fibrosis; assay: Established bleomycin-induced skin fibrosis, therapeutic dose-regimen (Example B): dermal thickness, hydroxyproline assay, αSMA immunohistochemistry; format: in vivo, mice
Experimental: as §1, §2, §3
Local skin fibrosis was induced in 6-week-old, pathogen-free, female DBA/2 mice (Charles River, Sulzfeld, Germany) by repeated (every other day) subcutaneous injections of bleomycin (0,5 mg/ml in saline) in a defined area of the upper back. Control mice were injected in the same manner with saline only. For all groups the injection volume was 100 µl. The study comprises 4 arms with • a) mice receiving saline injection for 6 weeks (serving as reference) • b) mice receiving Bleomycin injection for 6 weeks • c) mice receiving Bleomycin injection for 6 weeks and additional treatment with example 1A (3 mg/kg) twice a day via gavage for the last 3 weeks • d) mice receiving the first 3 weeks bleomycin injections and the second 3 weeks saline injection.
After 6 weeks the animals were sacrificed and skin samples were obtained for analysis.
Histological analysis, hydroxyproline assay and immunhistochemistry for α-smooth muscel actin were performed as described in the Example 1A section. Table 3: Effects of example 1A (3mg/kg p.o.) on established Bleomycin-induced skin fibrosis Fibrosis parameters expressed as x-fold change with respect to vehicle-treated control (group a)

[4] = Haemodynamic effects in conscious mice with telemetric implants (Example D); format: in vivo; details: dosages with antifibrotic properties
Experimental: The haemodynamic effects of i.e. example (1A) were analyzed in conscious mice. Telemetric implants (DSI®) were used. Signals were received with RMC1-DSI® receiver plates, compiled and analyzied with PONEMAH® physiology platform software.
The mice received either placebo (tylose), 0.3 mg/kg example 1A, 1mg/kg example 1A, 3mg/kg example 1A (Figure 1). The blood pressure and heart rate was monitored before and after application of placebo or the compounds.

[5] = test system: human dermal fibroblasts; assay: TGFbeta-induced collagen gene expression and hydroxyproline deposition in human dermal fibroblasts in vitro (Example E); format: cell-based
Experimental: The effects of example 1A and vardenafil as standalone and in combination were analyzed in vitro in human dermal fibroblasts in vitro.

[6] = bleomycin-induced SSc in mice, preventive dose-regimen
[7] = Bleomycin + 1 mg/kg example 1A, twice a day via gavage for 21 days, x-fold change with respect to vehicle-treated control
[8] = Bleomycin + 3mg/kg example 1A, twice a day via gavage for 21 days, x-fold change with respect to vehicle-treated control
[9] = TSK mice, established fibrosis before start of treatment
[10] = Bleomycin 6 weeks + 3 weeks example 1A (3mg/kg p.o., twice a day, last 3 weeks), x-fold change with respect to vehicle-treated control (group a)
[11] = bleomycin-induced SSc in mice, therapeutic dose-regimen after established fibrosis

## Nc1nc(-c2nn(Cc3ccccc3F)c3ncccc23)ncc1C1CC1 [Example 1A, 3-(4-Amino-5-cyclopropylpyrimidin-2-yl)-1-(2-fluorobenzyl)-1H-pyrazolo[3,4-b]pyridine]
[1]; Bleomycin + 1 mg/kg example 1A, twice a day via gavage for 21 days, DBA/2 mice, x-fold change with respect to vehicle-treated control
  dermal thickness: 1.37 x-fold change
[1]; Bleomycin + 3mg/kg example 1A, twice a day via gavage for 21 days, DBA/2 mice, x-fold change with respect to vehicle-treated control
  dermal thickness: 1.19 x-fold change
[1]; [6]
  dermal thickness: significantly reduced
  hydroxyproline content of the skin: significantly reduced
  number of dermal myofibroblasts: significantly reduced
[1]; [7]
  Collagen content: 1.19 x-fold change
  Myofibroblast count: 3.23 x-fold change
[1]; [8]
  Collagen content: 1.11 x-fold change
  Myofibroblast count: 1.90 x-fold change
[2]; [9]
  dermal thickness: significantly reduced
  hydroxyproline content of the skin: significantly reduced
  number of dermal myofibroblasts: significantly reduced
[2]; Tsk-1 + 1 mg/kg example 1A
  hypodermal thickness: 3.46 x-fold change
  Collagen content: 1.61 x-fold change
  Myofibroblast count: 2.12 x-fold change
[2]; Tsk-1 + 3mg/kg example 1A
  hypodermal thickness: 2.88 x-fold change
  Collagen content: 1.67 x-fold change
  Myofibroblast count: 1.70 x-fold change
[3]; [10]
  Myofibroblast count: 1.68 x-fold change
  dermal thickness: 1.26 x-fold change
[3]; [11]
  dermal thickness: significantly reduced
  hydroxyproline content of the skin: significantly reduced
  number of dermal myofibroblasts: significantly reduced
[4]
  heamodynamic profile (blood pressure and heart rate): did not or only moderately, change
[5]
  TGF-induced collagen gene expression: significantly blocked
  TGFbeta-induced Hydroxyproline (HP) deposition: significantly blocked
[5]; listed as example 1A
  TGF-induced collagen gene expression: blocked
